For two molecules, Activity, Km and kcat/Km results are on record in ChEMBL document CHEMBL1154494, “A highly sensitive fluorogenic probe for cytochrome P450 activity in live cells” (Bioorg Med Chem Lett, 2008).

Data set [1] relates to A549. The experiment in a line: Induction of CYP1A1 level in human A549 cells at 10 uM after 1 hr using Hoechst staining by fluorogenic assay. The data set is classed as functional, cell-based.
Data set [2] relates to A549. Put plainly: Induction of CYP1A1 level in human A549 cells at 10 uM after 1 hr using Hoechst staining by fluorogenic assay in presence of CYP1A1 inducer TCDD. The data set is classed as functional, cell-based.
For data set [3], the system named is A549. Put plainly: Inhibition of CYP1A1 level in human A549 cells at 10 uM after 1 hr using Hoechst staining by fluorogenic assay in presence of CYP1A1 inducer TCDD and CYP1A1 inhibitior resveratrol. The data set is classed as functional, cell-based.
Substrate in data set [4]: CCOc1cc(C)cc(C)c1C(C)(C)CC(=O)Nc1ccc2c(c1)Oc1cc(NC(=O)N3CCOCC3)ccc1C21Oc2ccccc2C1=O
Put plainly: Activity of human CYP1A1 by fluorogenic assay. The data set is classed as ADME.

Activity calls are given as the source filed them. The rule behind the calls is not given here.

Regarding `CCOc1cc(C)cc(C)c1C(C)(C)CC(=O)Nc1ccc2c(c1)Oc1cc(NC(=O)N3CCOCC3)ccc1C21OC(=O)c2ccccc21` (stereo not given), the result in data set [1], in data set [2] and in data set [3] was Active.

B1: Cytochrome P450 1A1 (Homo sapiens) (protein)
chain: MLFPISMSATEFLLASVIFCLVFWVIRASRPQVPKGLKNPPGPWGWPLIGHMLTLGKNPHLALSRMSQQYGDVLQIRIGSTPVVVLSGLDTIRQALVRQGDDFKGRPDLYTFTLISNGQSMSFSPDSGPVWAARRRLAQNGLKSFSIASDPASSTSCYLEEHVSKEAEVLISTLQELMAGPGHFNPYRYVVVSVTNVICAICFGRRYDHNHQELLSLVNLNNNFGEVVGSGNPADFIPILRYLPNPSLNAFKDLNEKFYSFMQKMVKEHYKTFEKGHIRDITDSLIEHCQEKQLDENANVQLSDEKIINIVLDLFGAGFDTVTTAISWSLMYLVMNPRVQRKIQEELDTVIGRSRRPRLSDRSHLPYMEAFILETFRHSSFVPFTIPHSTTRDTSLKGFYIPKGRCVFVNQWQINHDQKLWVNPSEFLPERFLTPDGAIDKVLSEKVIIFGMGKRKCIGETIARWEVFLFLAILLQRVEFSVPLGVKVDMTPIYGLTMKHACCEHFQMQLRS
The term Km denotes the concentration of substrate that gives half-maximal velocity. One may read the kcat/Km as the turnover number divided by the Michaelis constant. For B1, in data set [4], the Km is 0.09 µM and the kcat/Km worked out at 8800 M⁻¹ s⁻¹.
